Test systems include SF-539 CNS; MALME-3M melanoma; SNB-75 CNS; SN12C renal; NCI/ADR-RES ovarian; HT29 colon; HS 578T breast; BT-549 breast; HCC-2998 colon; HCT-116 colon; UO-31 renal.
Common to all, as to experiment: NCI-60 cell line screen, 48 h

The results in this text go back to PubChem BioAssay (NCI).

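Compound exposure: 48 hours, 5 concentrations, 96-well plates. GI50 marks 50% less growth. At the TGI there is no net growth.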

For `O=c1cc(-c2cccc(OC(F)(F)F)c2)[nH]c2cc3c(cc12)OCO3`, the TGI with SF-539 CNS is 0.204 µM; with MALME-3M melanoma it was greater than 100 µM; in the test with SNB-75 CNS, 17.3 µM; in the test with SN12C renal, greater than 100 µM; in the test with NCI/ADR-RES ovarian, 0.236 µM; with HT29 colon, 26.6 µM. Further, the TGI amounted to 4.9 µM with HS 578T breast, 33.5 µM in the test with BT-549 breast, 0.157 µM with HCC-2998 colon and 34.6 µM in the test with HCT-116 colon.
Take `S=C(Nc1cccc(Cl)c1)Nc1ccccn1`: the TGI with SF-539 CNS, in the test with MALME-3M melanoma, in the test on SNB-75 CNS, in the test on SN12C renal, in the test with NCI/ADR-RES ovarian and with HT29 colon was greater than 100 µM in each case. The TGI in the test with HS 578T breast, in the test with BT-549 breast, with UO-31 renal and with HCT-116 colon was greater than 100 µM each time.
Regarding `COC(=O)N/N=C/c1oc(-c2cccc([N+](=O)[O-])c2)c(-c2cccc([N+](=O)[O-])c2)c1[N+](=O)[O-]`, the TGI in the test with SN12C renal, in the test on HT29 colon, in the test on UO-31 renal, in the test on HCC-2998 colon and in the test with HCT-116 colon was greater than 100 µM in each case.
Take `COC(=O)c1c(C(=O)OC)c2cc(C(=O)c3ccccc3)ccn2c1Cl`: the TGI is greater than 100 µM in the test on SF-539 CNS; greater than 100 µM with MALME-3M melanoma; 55.4 µM in the test on SNB-75 CNS; greater than 100 µM in the test with SN12C renal; greater than 100 µM in the test with HT29 colon; 89.8 µM in the test on UO-31 renal. The TGI with HCC-2998 colon and with HCT-116 colon was greater than 100 µM in each case.
On to `COc1ccc(C2C(Cl)C(=O)N2NC(=O)Cc2ccccc2)cc1` (stereo not given), for which the TGI in the test with MALME-3M melanoma, in the test with SNB-75 CNS, in the test with SN12C renal, with HT29 colon, in the test with UO-31 renal and in the test with HCC-2998 colon was greater than 100 µM each time. In addition, the TGI in the test on HCT-116 colon is greater than 100 µM.
Turning to `O=C1CCCC2=C1CC1=C(CCCC1=O)N2c1cccc2ccccc12`, the TGI in the test with SF-539 CNS, in the test with SNB-75 CNS, in the test with SN12C renal, with NCI/ADR-RES ovarian, with HT29 colon and in the test on HS 578T breast was greater than 100 µM throughout. Moreover, the TGI with BT-549 breast, in the test on UO-31 renal and in the test with HCC-2998 colon was greater than 100 µM in each case.
Regarding `[N-]=[N+]=NC1C(Br)C(=O)NC(=O)N1[C@H]1C[C@H](O)[C@@H](CO)O1` (stereo not given in full), the TGI with SF-539 CNS, in the test with MALME-3M melanoma, in the test on SNB-75 CNS, with SN12C renal, in the test on HT29 colon and with UO-31 renal was greater than 100 µM each time. Moreover, in the test on HCC-2998 colon, the TGI is greater than 100 µM. Also, the GI50 in the test with MALME-3M melanoma was 15.5 µM.
In the case of `C=C1C(=O)C23CC1C[C@H](OC(C)=O)C2C1(C)C(OC(C)=O)C[C@H](O)C(C)(C)[C@H]1C(O)[C@@H]3OC(C)=O` (stereo not given in full), the TGI in the test with SF-539 CNS is 7.54 µM; in the test on MALME-3M melanoma, 19.9 µM; in the test with SNB-75 CNS, 36.3 µM; in the test on SN12C renal, 20.7 µM; in the test with NCI/ADR-RES ovarian, greater than 100 µM; in the test on HT29 colon it was 30 µM. The TGI was found to be 41.9 µM in the test with HS 578T breast; 13.5 µM with BT-549 breast; 31.2 µM with UO-31 renal; 36.9 µM in the test on HCC-2998 colon; 16.2 µM in the test with HCT-116 colon.
As to `O=C1CCC2SC1CCC2=O`, the TGI in the test on SF-539 CNS, in the test on MALME-3M melanoma, with SNB-75 CNS, in the test with SN12C renal, in the test on NCI/ADR-RES ovarian and in the test with HT29 colon was greater than 100 µM each time. Moreover, the TGI in the test on BT-549 breast, in the test on UO-31 renal, in the test with HCC-2998 colon and with HCT-116 colon was greater than 100 µM in each case.
With `COC[n+]1cc2cc(OC)c(OC)cc2c2ccc3cc(OC)c(OC)cc3c21`, the TGI in the test on SF-539 CNS, in the test with MALME-3M melanoma, with SNB-75 CNS, with SN12C renal, with HT29 colon and with UO-31 renal was greater than 100 µM throughout. Besides, the TGI in the test with HCC-2998 colon and in the test with HCT-116 colon was greater than 100 µM in each case.
In the case of `CCOC(=O)CCC(NC(=O)c1ccc(Nc2nc3cc(C(F)(F)F)ccc3nc2-c2ccccc2)cc1)C(=O)OCC` (stereo not given), the TGI in the test with SF-539 CNS, with MALME-3M melanoma, in the test with SNB-75 CNS, in the test on SN12C renal, with NCI/ADR-RES ovarian and in the test with HT29 colon was greater than 100 µM throughout. In addition, the TGI in the test on HS 578T breast, in the test with BT-549 breast, in the test with UO-31 renal, in the test with HCC-2998 colon and in the test on HCT-116 colon was greater than 100 µM each time.
With `CCN(CC)Cc1cc(Nc2c3ccccc3nc3c2[nH]c2ccccc23)ccc1O`, the TGI turned out to be 2.74 µM with SF-539 CNS; 3.31 µM in the test on MALME-3M melanoma; 3.35 µM with SNB-75 CNS; 6.22 µM with SN12C renal; 2.01 µM with HT29 colon; 3.56 µM in the test with UO-31 renal. The compound further had a TGI in the test on HCT-116 colon of 1.91 µM.
Regarding `COC12C=CC(CC1)C1C(=O)c3c(C)c(C)n(C)c3C(=O)C12` (stereo not given), the TGI in the test on SF-539 CNS, in the test with MALME-3M melanoma, in the test with SNB-75 CNS, with NCI/ADR-RES ovarian, in the test with HT29 colon and in the test with HS 578T breast was greater than 100 µM throughout. The TGI in the test on BT-549 breast, in the test on UO-31 renal and in the test on HCT-116 colon was greater than 100 µM throughout.
Consider `N#CC12C3C4CC5C6C4C1C6C(O)(C53)N2Cc1ccccc1` (stereo not given), for which the TGI with SF-539 CNS, in the test on MALME-3M melanoma, with SNB-75 CNS, with SN12C renal, in the test on HT29 colon and with UO-31 renal was greater than 100 µM each time. In addition, the TGI in the test on HCC-2998 colon and with HCT-116 colon was greater than 100 µM each time.
`COc1cc2[nH]c(-c3cccc(N(C)C)c3)cc(=O)c2cc1OC`: the TGI is greater than 21.3 µM with SF-539 CNS; greater than 100 µM in the test with MALME-3M melanoma; greater than 100 µM in the test with SN12C renal; greater than 25.9 µM with HT29 colon; greater than 100 µM in the test with UO-31 renal; 7.5 µM in the test on HCC-2998 colon. The TGI in the test on HCT-116 colon was greater than 100 µM.
For `O=C(c1ccncc1)n1nc(-c2ccccc2)c(N=Nc2ccc([N+](=O)[O-])cc2)c1-c1ccccc1`, the TGI in the test on SF-539 CNS was greater than 100 µM; in the test with MALME-3M melanoma, greater than 100 µM; in the test on SNB-75 CNS, greater than 100 µM; in the test with SN12C renal, greater than 100 µM; in the test with HT29 colon it was greater than 100 µM; with UO-31 renal, 86.2 µM. For the same compound, the TGI with HCC-2998 colon and in the test on HCT-116 colon was greater than 100 µM each time.
Regarding `CC1=NN(C(=O)Cc2ccccc2)C(=O)/C1=C\C=C\c1ccccc1`, the TGI in the test on SF-539 CNS, in the test on MALME-3M melanoma, in the test with SNB-75 CNS, in the test with SN12C renal, in the test with HT29 colon and in the test with UO-31 renal was greater than 100 µM throughout. Further, the TGI in the test with HCC-2998 colon and with HCT-116 colon was greater than 100 µM in each case.
As to `Cc1cc2oc(=O)[nH]c(=S)c2c(C)c1C`, the TGI in the test with SF-539 CNS, in the test with MALME-3M melanoma, in the test on SNB-75 CNS, in the test on SN12C renal, in the test with HT29 colon and in the test on UO-31 renal was greater than 100 µM throughout. Further, the TGI in the test with HCC-2998 colon and with HCT-116 colon was greater than 100 µM throughout.
For `CCOC(=O)CC[C@@H](NC(=O)c1ccc(N[C@@H]2c3cc4c(cc3C(c3cc(OC)c(O)c(OC)c3)C3C(=O)OC[C@@H]32)OCO4)cc1)C(=O)OCC` (stereo not given in full), the TGI with SF-539 CNS worked out at 0.0478 µM; with MALME-3M melanoma, 0.236 µM; with SN12C renal, 0.0897 µM; with HT29 colon, 0.751 µM; in the test with UO-31 renal, 0.194 µM; in the test with HCC-2998 colon it was 0.318 µM.
As for `COc1ccc(CN(CCc2c[nH]c3ccccc23)Cc2ccc(OC)cc2)cc1`, the TGI with SF-539 CNS stood at 3.14 µM; in the test with MALME-3M melanoma it was 8.82 µM; with SNB-75 CNS it was 15.1 µM; in the test on SN12C renal it was 2.24 µM; with NCI/ADR-RES ovarian, 9.79 µM; in the test on HT29 colon it was 6.41 µM. Further, the TGI with HS 578T breast was determined as 63 µM; in the test on BT-549 breast it was 11.4 µM; in the test on UO-31 renal, 6.8 µM; in the test with HCC-2998 colon, 43.1 µM.
As for `CC(C)(C)[C@H]1CO[C@]2(C)[C@@H]3C[C@@H]3C(=O)N12`, the TGI with SF-539 CNS, in the test on MALME-3M melanoma, in the test with SNB-75 CNS, in the test on SN12C renal, in the test on HT29 colon and in the test on UO-31 renal was greater than 100 µM throughout. Moreover, the TGI in the test with HCC-2998 colon and in the test with HCT-116 colon was greater than 100 µM in each case.
On to `CCOC(=O)c1nc2ccc(C(F)(F)F)cc2nc1Oc1ccc(F)cc1`, for which the TGI in the test on SF-539 CNS, in the test on SNB-75 CNS, in the test with NCI/ADR-RES ovarian, in the test on HT29 colon, in the test on HS 578T breast and in the test on BT-549 breast was greater than 100 µM throughout. Moreover, the TGI in the test with UO-31 renal, in the test on HCC-2998 colon and with HCT-116 colon was greater than 100 µM in each case.
